Test results: publication PMC3248976 (Bioorganic & medicinal chemistry letters, 2011)
Each block holds one compound with its values, some of them ahead of it.

Columns and labels:
Format in all cases: cell-based
[1] = biological target: T1, S1P4-R (human Endothelial Differentiation Gene 6; EDG6) (Homo sapiens, UniProt O95977); assay: Tango S1P4-BLA U2OS beta-arrestin/beta-lactamase reporter agonist assay; conditions: for fold more potent than the hit 2 / fold decrease in potency compared to the hit 2: S1P4-R EC50 ratio vs hit 2; for S1P4-R agonist activity in words: concentrations up to 25 μM; for fold less potent than 22p: S1P4-R EC50 ratio vs 22p
T1 sequence (O95977 1-384): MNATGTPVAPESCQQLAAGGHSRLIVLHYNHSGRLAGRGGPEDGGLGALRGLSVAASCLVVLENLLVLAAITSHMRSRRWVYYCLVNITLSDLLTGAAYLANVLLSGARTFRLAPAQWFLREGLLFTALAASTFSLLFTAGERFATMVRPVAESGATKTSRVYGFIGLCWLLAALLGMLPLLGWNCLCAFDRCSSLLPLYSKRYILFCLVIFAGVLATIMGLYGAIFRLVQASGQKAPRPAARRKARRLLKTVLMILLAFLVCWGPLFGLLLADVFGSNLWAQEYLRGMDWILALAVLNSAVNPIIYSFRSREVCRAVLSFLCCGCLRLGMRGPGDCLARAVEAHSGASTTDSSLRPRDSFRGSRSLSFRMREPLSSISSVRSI

[2] = biological target: S1P5-R (Homo sapiens, UniProt Q9H228); assay: S1P1–3,5-Rs selectivity counter screen, S1P5-R; conditions: mean of n = 3; NA = not active at concentrations up to 25 μM
Sequence of S1P5-R (Q9H228 whole entry): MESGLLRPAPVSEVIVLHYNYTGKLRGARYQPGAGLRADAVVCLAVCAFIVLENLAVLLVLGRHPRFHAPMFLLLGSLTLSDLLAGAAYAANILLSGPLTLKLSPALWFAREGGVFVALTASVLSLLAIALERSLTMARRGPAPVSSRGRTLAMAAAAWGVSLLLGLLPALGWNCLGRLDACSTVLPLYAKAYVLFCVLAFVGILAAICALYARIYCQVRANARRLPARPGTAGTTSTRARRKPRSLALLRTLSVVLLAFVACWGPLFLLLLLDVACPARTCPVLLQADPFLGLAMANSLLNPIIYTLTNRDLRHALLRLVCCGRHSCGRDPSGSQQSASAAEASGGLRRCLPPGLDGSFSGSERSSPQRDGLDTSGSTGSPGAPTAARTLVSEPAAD

[3] = biological target: S1P1-R (Homo sapiens, UniProt P21453); assay: S1P1–3,5-Rs selectivity counter screen, S1P1-R; conditions: mean of n = 3; NA = not active at concentrations up to 25 μM
Sequence of S1P1-R (P21453 whole entry): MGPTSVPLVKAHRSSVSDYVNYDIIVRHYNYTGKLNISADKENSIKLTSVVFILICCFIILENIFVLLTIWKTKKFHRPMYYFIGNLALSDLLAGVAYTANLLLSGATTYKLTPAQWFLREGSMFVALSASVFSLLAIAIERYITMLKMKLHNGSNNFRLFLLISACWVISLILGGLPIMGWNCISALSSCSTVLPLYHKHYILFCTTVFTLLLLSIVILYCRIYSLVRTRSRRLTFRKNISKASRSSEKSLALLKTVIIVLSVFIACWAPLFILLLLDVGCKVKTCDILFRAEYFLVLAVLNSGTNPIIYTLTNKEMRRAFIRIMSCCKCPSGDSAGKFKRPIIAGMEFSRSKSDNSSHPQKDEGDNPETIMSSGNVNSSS

[4] = biological target: S1P2-R (Homo sapiens, UniProt O95136); assay: S1P1–3,5-Rs selectivity counter screen, S1P2-R; conditions: mean of n = 3; NA = not active at concentrations up to 25 μM
Sequence of S1P2-R (O95136 whole entry): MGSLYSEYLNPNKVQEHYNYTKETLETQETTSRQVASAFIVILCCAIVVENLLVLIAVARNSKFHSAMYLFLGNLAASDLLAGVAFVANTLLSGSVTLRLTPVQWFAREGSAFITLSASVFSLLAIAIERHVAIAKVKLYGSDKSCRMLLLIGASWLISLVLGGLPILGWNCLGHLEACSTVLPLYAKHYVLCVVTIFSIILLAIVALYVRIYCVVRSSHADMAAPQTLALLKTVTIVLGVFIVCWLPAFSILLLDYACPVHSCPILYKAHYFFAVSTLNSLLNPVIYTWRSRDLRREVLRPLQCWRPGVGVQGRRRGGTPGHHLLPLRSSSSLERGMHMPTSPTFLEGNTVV

[5] = biological target: S1P3-R (Homo sapiens, UniProt Q99500); assay: S1P1–3,5-Rs selectivity counter screen, S1P3-R; conditions: mean of n = 3; NA = not active at concentrations up to 25 μM
Sequence of S1P3-R (Q99500 whole entry): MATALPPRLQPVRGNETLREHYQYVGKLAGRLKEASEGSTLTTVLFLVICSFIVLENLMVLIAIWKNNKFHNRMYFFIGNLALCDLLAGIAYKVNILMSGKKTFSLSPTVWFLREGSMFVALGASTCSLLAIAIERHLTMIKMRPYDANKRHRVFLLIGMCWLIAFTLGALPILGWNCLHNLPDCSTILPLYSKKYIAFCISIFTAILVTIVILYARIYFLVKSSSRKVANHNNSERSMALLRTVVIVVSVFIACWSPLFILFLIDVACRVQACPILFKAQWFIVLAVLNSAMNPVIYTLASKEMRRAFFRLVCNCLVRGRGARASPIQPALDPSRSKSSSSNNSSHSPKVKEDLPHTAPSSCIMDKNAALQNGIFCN

fold more potent than the hit 2 [1]: 3.5 fold
SMILES: FCc1ccc(OCCOc2ccc(Cl)cc2Cl)c(Cl)n1 [22aa]

fold less potent than 8h ([1]; S1P4-R EC50 ratio vs 2-chloro analog 8h): 3 fold
SMILES: Cc1ccc(OCCOc2ccc(Br)cc2C(F)(F)F)c([N+](=O)[O-])n1 [8r]

S1P4-R agonist activity in words [1]: complete loss of activity
SMILES: Cc1ccc(OCCCOc2ccc(Cl)cc2Cl)c([N+](=O)[O-])n1 [13a]

S1P4-R agonist activity in words [1]: complete loss of activity
SMILES: Cc1ccc(OCCOc2ccccc2)c([N+](=O)[O-])n1 [8f]

fold decrease in potency compared to the hit 2 [1]: 18 fold
SMILES: O=[N+]([O-])c1ncccc1OCCOc1ccc(Cl)cc1Cl [22a]

S1P4-R agonist activity in words [1]: complete loss of activity
SMILES: Cc1ccc(OCCOc2ccccc2Cl)c([N+](=O)[O-])n1 [8a]

fold more potent than the hit 2 [1]: 3 fold
SMILES: Clc1ccc(OCCOc2ccc(Br)nc2Br)c(Cl)c1 [22n]

fold less potent than 22l ([1]; S1P4-R EC50 ratio vs 22l): 4 fold
fold more potent than 22m ([1]; S1P4-R EC50 ratio vs 22m): 6 fold
SMILES: Fc1ccc(OCCOc2ccc(Cl)cc2Cl)c(Br)n1 [22o]

EC50 nM, S1P5-R [2]: no agonistic activity
EC50 nM, S1P1-R [3]: no agonistic activity
EC50 nM, S1P2-R [4]: no agonistic activity
EC50 nM, S1P3-R [5]: no agonistic activity
SMILES: Cc1ccc(OCCOc2ccc(Cl)cc2Cl)c([N+](=O)[O-])n1 [compound 2, 3-(2-(2,4-dichlorophenoxy)ethoxy)-6-methyl-2-nitropyridine]

fold less potent than 22p [1]: 38 fold
SMILES: O=Cc1ccc(OCCOc2ccc(Cl)cc2Cl)c(I)n1 [22u]

fold decrease in potency compared to the hit 2 [1]: 5–6 fold
SMILES: Cc1ccc(OCCCc2ccc(Cl)cc2Cl)c([N+](=O)[O-])n1 [13b]

fold decrease in potency compared to the hit 2 [1]: 2 fold
SMILES: O=[N+]([O-])c1nc(Cl)ccc1OCCOc1ccc(Cl)cc1Cl [22d]

SMILES: Cc1ccc(OCCOc2cc(Cl)cc([N+](=O)[O-])c2)c([N+](=O)[O-])n1 [8q]
fold decrease in potency compared to the hit 2 [1]: 22 fold

fold less potent than 22p [1]: 4 fold
SMILES: OCc1ccc(OCCOc2ccc(Cl)cc2Cl)c(I)n1 [22t]

S1P4-R agonist activity in words [1]: complete loss of activity
SMILES: Cc1ccc(OC(=O)COc2ccc(Cl)cc2Cl)c([N+](=O)[O-])n1 [13d]

fold decrease in potency compared to the hit 2 [1]: 3 fold
SMILES: Cc1ccc(OCCOc2c(Cl)cc(Cl)cc2Cl)c([N+](=O)[O-])n1 [8s]

fold less active than the 2-iodine counterpart 22t ([1]; S1P4-R EC50 ratio vs 22t): 5 fold
SMILES: OCc1ccc(OCCOc2ccc(Cl)cc2Cl)c(Cl)n1 [22v]

fold more potent than the hit 2 [1]: 3 fold
SMILES: Cc1ccc(OCCOc2ccc(Cl)cc2Cl)c(Br)n1 [22l]

fold decrease in potency compared to the hit 2 [1]: 8 fold
SMILES: Cc1ccc(OCCOc2ccc(Cl)cc2Cl)c([N+](=O)[O-])c1 [22c]

S1P4-R agonist activity in words [1]: complete loss of activity
SMILES: Cc1ccc(OCCOc2ccc(Cl)cc2)c([N+](=O)[O-])n1 [8b]
